Laboratory results taken from paper PMC6779273, “Emodepside has sex-dependent immobilizing effects on adult Brugia malayi due to a differentially spliced binding pocket in the RCK1 region of the SLO-1 K channel” (PLoS Pathogens, 2019).

Experiments:
[1] = molecular target: T1, Bma-SLO-1F (SLO-1 K channel, splice variant F) (Brugia malayi, UniProt A0A0J9Y9H3); assay: two-electrode voltage clamp, Xenopus laevis oocytes expressing slo-1f (activation of outward current); format: cell-based
T1 construct: full-length slo-1f splice variant

[2] = molecular target: T2, Bma-SLO-1A (SLO-1 K channel, splice variant A) (Brugia malayi, UniProt A0A0H5S223); assay: two-electrode voltage clamp, Xenopus laevis oocytes expressing slo-1a (small but detectable outward current); format: cell-based
T2 construct: full-length slo-1a splice variant
From the text: two-electrode voltage clamp, Xenopus laevis oocytes expressing slo-1a (small but detectable outward current) on Bma-SLO-1A (SLO-1 K channel, splice variant A) | When we expressed slo-1a, or slo-1a with slo-1f (Fig 4C & 4D), we found much smaller, but still detectable currents.

SMILES: CC(C)C[C@H]1C(=O)O[C@H](Cc2ccc(N3CCOCC3)cc2)C(=O)N(C)[C@@H](CC(C)C)C(=O)O[C@H](C)C(=O)N(C)[C@@H](CC(C)C)C(=O)O[C@H](Cc2ccc(N3CCOCC3)cc2)C(=O)N(C)[C@@H](CC(C)C)C(=O)O[C@H](C)C(=O)N1C [emodepside]
- EC50 [1]: 5 ± 1 µM
- EC50 [2]: > 30 µM
